No end group written: not given here.
Tested on: YK-EC (HLA-A2-restricted CTL cell line) with HLA-A0201-positive T2 cells
Assay: IFN-γ production by YK-EC incubated with peptide-pulsed T2 cells (ELISA)
Format: cell-based, human
Settings: 2×10^4 T2 cells pulsed with peptide at 10 μM over 2 hours, incubated with 1×10^5 YK-EC for 18 hours; IFN-γ in supernatant by ELISA; non peptide control 6.5
Description: Specifically, 10^4 of VA-13 cells were placed in each well of 96-well microplate, and incubated in RPMI 1640 medium containing 10% FCS. VA-13 cells were doubly transfected with 30 μl mixture consisting of 100 ng of the recombinant plasmid for HLA-A0201 cDNA and 100 ng of 6DI by using Lipofectin reagent (GIBCO BRL). Transfectants were prepared in duplicate. After 5-hour-incubation, 200 μl of culture medium was added to the transfectants, and the incubation continued for 72 hours. The culture medium was removed and 2×10^4 YK-EC were added, which was followed by cultivation for 18 to 24 hours. The culture medium was recovered, and the amount of IFN-γ was measured by ELISA. Specifically, an anti-humnan IFN-γ mouse monoclonal antibody was allowed to adsorb on wells of 96-well microplate to provide a solid-phased antibody. After blocking non-specific bindings with bovine serum albumin, the solid-phased antibody was allowed to bind with IFN-γ in the test sample. Anti-human IFN-γ rabbit polyclonal antibody as a detection antibody was then allowed to bind, which was followed by binding with an anti-rabbit immunoglobulin goat antibody (Amersham) labeled with alkaline phosphatase. The plate was subjected to color development reaction with peroxdase color development kit T (Sumitomo Bakelite), and measurement of absorbance at 405 nm. The absorbance was compared with that obtained with standard IFN-γ to determine the amount of IFN-γ. In the control experiments, the following three groups of cells were treated in the same manner: cells without transfection (non-treated group); cells transfected with recombinant plasmid 6DI alone; and cells transfected with solely recombinant plasmid containing HLA-A201 cDNA. To 2×10^4 T2 cells (Immunogenetics, 21:235,1985), which cell is an HLA-A0201-positive T-B hybridoma cell line but lacks the ability to present endogenous peptides, were added each of six peptides prepared in Example 3 at 10 μM over 2 hours. After incubating with 1×10^5 YK-EC for 18 hours, the amount of IFN-γ in supernatant produced by YK-EC was measured by ELISA in the same manner as described in Example 2.

Sequence | Amount of INF-γ produced by YK-EC [pg/mL]
AQKTPYIVL [778-786] | 105.4
LLETTVQKV [650-658] | 118.1
LLLCQNKGL [642-650] | 109.1
LLLCQNKGLL [642-651] | 112.4
RVKAPNKSL [660-668] | 71.1
YVDETGRKL [712-720] | 86.1

Source: patent publication US6664232B1, “HLA-A2 restraint tumor antigen peptide originating in SART-1” (Kyogo Itoh, priority 1998, dated 2003)
